{"source": "patent EP2818472A1", "about": "“Imidazo[4,5-c]pyridine and pyrrolo[3,2-c]pyridine compounds as G-protein-coupled receptor kinase 5 (GRK5) modulators” (Max-Planck-Gesellschaft zur Förderung der Wissenschaften …, priority 2013, dated 2014)"}
{"test_system": "beta-TC6 cells", "experiment": "Insulin HTRF assay (relative activity Ar) in beta-TC6 cells", "type": "cell-based, mouse", "conditions": "Mus musculus, Beta-TC6, 4 h, insulin HTRF, supernatant of beta-TC6 cells, incubation with test compound at 37°C for 2, 3, 4h; read-out: Ar (relative activity)", "description": "For further screening of compounds derived from compounds described above for their ability to regulate insulin release an insulin HTRF® (Homogeneous Time-Resolved Fluorescence; Cisbio International, France) was used. This assay is based on two antibodies against insulin binding to different epitopes of insulin. One of these antibodies is coupled to Europium (Ab-Eu-Cryptate) and the other one to the fluorophore XL665 (Ab-XL665). If the insulin is secreted into the supernatant of cell culture, both antibodies can bind to insulin and come therefore into close proximity, which allows upon excitation that energy transfer between (FRET) the long-life fluorescent donor Europium (cryptate) and the acceptors XL665. FRET increases proportionally with insulin concentration.\nThe automated assay protocol is as follows: • On day 1, 15k beta-TC6 cells per well were seeded for 24 or 48 h in 50 µL complete medium. On day 2 or respective on day 3, the medium is removed and cells are washed with 60 µL 1xPBS and 20 µL induction buffer is added using BioTek washer. Subsequently, 10 µL Sunitininb (5 -µM f.c.) or the test compound in induction buffer; 0.5% f.c. DMSO (CyBi-well) is transferred to the cells. The cells are then incubated at 37°C for 2, 3, 4h.\nFirst 10 µL supernatant is transferred from the cell plates in HTRF plates (CyBi-well). 10 µL of 0, 1, 2, and 4 ng/ml insulin standard controls in assay medium is used as a control. To each well 10 µL of combined 1:25 Ab-XL665 (Acc) and 1:20 Ab-Eu-Cryptate (WellMate) are added and incubated for 120 min at RT in the dark. Finally HTRF is measured on ViewLux ultra high throughput microplate imager (PerkinElmer).\nThe evaluation software DataFactoty derives relative activities Ar according to the following equation: Ar = (V-R(0%control))/(R(100%control) -R0%control)) × 100 [formula]\nThe activity of the compounds was classified according to their Ar (relative activity) into the following ranges: […]", "units": {"Emax": "%"}}
{"compound": "COc1ccc(Nc2nccc3[nH]c(-c4ccccc4)nc23)cc1OC", "note": "[Compound 330, N-(3,4-dimethoxyphenyl)-2-phenyl-1H-imidazo[4,5-c]pyridin-4-amine]", "Emax": "> 100"}
{"compound": "CNc1nc2cnc(Nc3ccc(N4CCN(C)CC4)cc3)cc2n1-c1cc(OC)c(OC)c(OC)c1", "note": "[Compound 489, N2-methyl-N6-[4-(4-methylpiperazin-1-yl)phenyl]-1-(3,4,5-trimethoxyphenyl)imidazo[4,5-c]pyridine-2,6-diamine]", "Emax": "50 to 100"}
{"compound": "Oc1cccc(Nc2nccc3[nH]c(-c4ccccc4)nc23)c1", "note": "[Compound 337, 3-[(2-phenyl-1H-imidazo[4,5-c]pyridin-4-yl)amino]phenol]", "Emax": "30 to 50"}
{"compound": "CC(=O)Nc1cccc(Nc2cc3c(cn2)nc(-c2ccco2)n3C)c1", "note": "[Compound 712, N-[3-[[2-(2-furyl)-1-methyl-imidazo[4,5-c]pyridin-6-yl]amino]phenyl]acetamide]", "Emax": "50 to 100"}
{"compound": "COc1ccc(OC)c(CCNc2nc3cnc(-c4cccc(O)c4)cc3n2C)c1", "note": "[Compound 820, 3-[2-[2-(2,5-dimethoxyphenyl)ethylamino]-1-methyl-imidazo[4,5-c]pyridin-6-yl]phenol]", "Emax": "30 to 50"}
{"compound": "CC(C)Oc1ccc(Nc2cc3[nH]c(-c4cccnc4)cc3cn2)cc1", "note": "[Compound 81, N-(4-isopropoxyphenyl)-2-(3-pyridyl)-1H-pyrrolo[3,2-c]pyridin-6-amine]", "Emax": "30 to 50"}
{"compound": "Cn1c(-c2ccsc2)cc2c(Nc3ccccn3)nccc21", "note": "[Compound 280, 1-methyl-N-(2-pyridyl)-2-(3-thienyl)pyrrolo[3,2-c]pyridin-4-amine]", "Emax": "30 to 50"}
{"compound": "CN(C)C(=O)c1ccc(Nc2cc3c(cn2)cc(-c2cccnc2)n3C)cc1", "note": "[Compound 95, N,N-dimethyl-4-[[1-methyl-2-(3-pyridyl)pyrrolo[3,2-c]pyridin-6-yl]amino]benzamide]", "Emax": "50 to 100"}
{"compound": "COc1ccc(Nc2nccc3[nH]c(-c4ccc(C)cc4)nc23)cn1", "note": "[Compound 379, N-(6-methoxy-3-pyridyl)-2-(p-tolyl)-1H-imidazo[4,5-c]pyridin-4-amine]", "Emax": "50 to 100"}
{"compound": "COc1ccc(Cn2cnc3cnc(Nc4ccc(NC(C)=O)cc4)cc32)cc1OC", "note": "[Compound 730, N-[4-[[1-[(3,4-dimethoxyphenyl)methyl]imidazo[4,5-c]pyridin-6-yl]amino]phenyl]acetamide]", "Emax": "50 to 100"}
{"compound": "CS(=O)(=O)Nc1cccc(Nc2cc3[nH]c(-c4cccc(C(F)(F)F)c4)cc3cn2)c1", "note": "[Compound 5, N-[3-[[2-[3-(trifluoromethyl)phenyl]-1H-pyrrolo[3,2-c]pyridin-6-yl]amino]phenyl]methanesulfonamide]", "Emax": "0 to 30"}
{"compound": "COc1cccc(-c2nc3c(Nc4ccccc4)nccc3[nH]2)c1", "note": "[Compound 370, 2-(3-methoxyphenyl)-N-phenyl-1H-imidazo[4,5-c]pyridin-4-amine]", "Emax": "30 to 50"}
{"compound": "COc1ccc(CNc2nc3cnc(Nc4ccc(NC(C)=O)cc4)cc3n2C)cc1OC", "note": "[Compound 600, N-[4-[[2-[(3,4-dimethoxyphenyl)methylamino]-1-methyl-imidazo[4,5-c]pyridin-6-yl]amino]phenyl]acetamide]", "Emax": "50 to 100"}
{"compound": "COCCCNc1nccc2[nH]c(-c3ccc4c(c3)OCCO4)nc12", "note": "[Compound 420, 2-(2,3-dihydro-1,4-benzodioxin-6-yl)-N-(3-methoxypropyl)-1H-imidazo[4,5-c]pyridin-4-amine]", "Emax": "30 to 50"}
{"compound": "COc1ccccc1-c1cc2c(Nc3cccc(NS(C)(=O)=O)c3)nccc2[nH]1", "note": "[Compound 298, N-[3-[[2-(2-methoxyphenyl)-1H-pyrrolo[3,2-c]pyridin-4-yl]amino]phenyl]methanesulfonamide]", "Emax": "50 to 100"}
{"compound": "COc1ccc(-c2nc3c(Nc4ccccc4)nccc3[nH]2)cc1", "note": "[Compound 393, 2-(4-methoxyphenyl)-N-phenyl-1H-imidazo[4,5-c]pyridin-4-amine]", "Emax": "30 to 50"}
{"compound": "CNc1nc2cnc(Nc3cccc(NS(C)(=O)=O)c3)cc2n1-c1cc(OC)c(OC)c(OC)c1", "note": "[Compound 492, N-[3-[[2-(methylamino)-1-(3,4,5-trimethoxyphenyl)imidazo[4,5-c]pyridin-6-yl]amino]phenyl]methanesulfonamide]", "Emax": "30 to 50"}
{"compound": "CC(=O)c1cccc(Nc2cc3c(cn2)cc(-c2cnn(C)c2)n3C)c1", "note": "[Compound 150, 1-[3-[[1-methyl-2-(1-methylpyrazol-4-yl)pyrrolo[3,2-c]pyridin-6-yl]amino]phenyl]ethanone]", "Emax": "50 to 100"}
{"compound": "CNc1nc2cnc(Nc3cccc(F)c3)cc2n1-c1cc(OC)c(OC)c(OC)c1", "note": "[Compound 494, N6-(3-fluorophenyl)-N2-methyl-1-(3,4,5-trimethoxyphenyl)imidazo[4,5-c]pyridine-2,6-diamine]", "Emax": "30 to 50"}
{"compound": "COc1ccc(Nc2cc3[nH]c(-c4cnn(C)c4)cc3cn2)cc1OC", "note": "[Compound 123, N-(3,4-dimethoxyphenyl)-2-(1-methylpyrazol-4-yl)-1H-pyrrolo[3,2-c]pyridin-6-amine]", "Emax": "> 100"}
{"compound": "COc1ccc(Nc2cc3c(cn2)cc(-c2cccnc2)n3C)cc1", "note": "[Compound 91, N-(4-methoxyphenyl)-1-methyl-2-(3-pyridyl)pyrrolo[3,2-c]pyridin-6-amine]", "Emax": "50 to 100"}
{"compound": "COc1ccc(Nc2nccc3[nH]c(-c4ccc(F)c(F)c4)nc23)cc1OC", "note": "[Compound 440, 2-(3,4-difluorophenyl)-N-(3,4-dimethoxyphenyl)-1H-imidazo[4,5-c]pyridin-4-amine]", "Emax": "30 to 50"}
{"compound": "COc1ccc(-c2cc3c(cn2)ncn3-c2cccc(C(F)(F)F)c2)cc1OC", "note": "[Compound 734, 6-(3,4-dimethoxyphenyl)-1-[3-(trifluoromethyl)phenyl]imidazo[4,5-c]pyridine]", "Emax": "30 to 50"}
{"compound": "Cc1cccc(Nc2cc3[nH]c(-c4ccc(C(=O)N(C)C)cc4)cc3cn2)c1", "note": "[Compound 28, N,N-dimethyl-4-[6-(3-methylanilino)-1H-pyrrolo[3,2-c]pyridin-2-yl]benzamide]", "Emax": "50 to 100"}
{"compound": "CCN(CC)CCNC(=O)c1ccc(Nc2nccc3[nH]c(-c4cccnc4)nc23)cc1", "note": "[Compound 359, N-(2-diethylaminoethyl)-4-[[2-(3-pyridyl)-1H-imidazo[4,5-c]pyridin-4-yl]amino]benzamide]", "Emax": "30 to 50"}
{"compound": "c1ccc(-c2cc3c(Nc4ccccn4)nccc3[nH]2)cc1", "note": "[Compound 321, 2-phenyl-N-(2-pyridyl)-1H-pyrrolo[3,2-c]pyridin-4-amine]", "Emax": "30 to 50"}
{"compound": "COc1ccc(-c2nc3c(Nc4ccccc4)nccc3[nH]2)cc1OC", "note": "[Compound 342, 2-(3,4-dimethoxyphenyl)-N-phenyl-1H-imidazo[4,5-c]pyridin-4-amine]", "Emax": "50 to 100"}
{"compound": "COc1cc(Nc2nccc3[nH]c(-c4cccc(C)c4)nc23)cc(OC)c1OC", "note": "[Compound 435, 2-(m-tolyl)-N-(3,4,5-trimethoxyphenyl)-1H-imidazo[4,5-c]pyridin-4-amine]", "Emax": "50 to 100"}
{"compound": "CNc1nc2cnc(Nc3ccc(O)cc3)cc2n1-c1cc(OC)c(OC)c(OC)c1", "note": "[Compound 485, 4-[[2-(methylamino)-1-(3,4,5-trimethoxyphenyl)imidazo[4,5-c]pyridin-6-yl]amino]phenol]", "Emax": "50 to 100"}
{"compound": "FC(F)(F)Oc1cccc(Nc2cc3[nH]c(-c4ccccn4)cc3cn2)c1", "note": "[Compound 69, 2-(2-pyridyl)-N-[3-(trifluoromethoxy)phenyl]-1H-pyrrolo[3,2-c]pyridin-6-amine]", "Emax": "30 to 50"}
{"compound": "COc1cncc(-c2cc3c(cn2)nc(-c2ccco2)n3C)c1", "note": "[Compound 764, 2-(2-furyl)-6-(5-methoxy-3-pyridyl)-1-methyl-imidazo[4,5-c]pyridine]", "Emax": "0 to 30"}
{"compound": "CNc1nc2cnc(Nc3ccc(S(C)(=O)=O)cc3)cc2n1-c1ccccc1", "note": "[Compound 518, N2-methyl-N6-(4-methylsulfonylphenyl)-1-phenyl-imidazo[4,5-c]pyridine-2,6-diamine]", "Emax": "50 to 100"}
{"compound": "COc1cccc(-c2nc3c(Nc4ccc(OC)c(OC)c4)nccc3[nH]2)c1", "note": "[Compound 369, N-(3,4-dimethoxyphenyl)-2-(3-methoxyphenyl)-1H-imidazo[4,5-c]pyridin-4-amine]", "Emax": "> 100"}
{"compound": "COc1cc(Nc2cc3c(cn2)nc(-c2ccccc2)n3C)cc(OC)c1OC", "note": "[Compound 701, 1-methyl-2-phenyl-N-(3,4,5-trimethoxyphenyl)imidazo[4,5-c]pyridin-6-amine]", "Emax": "50 to 100"}
{"compound": "CN(C)C(=O)c1ccc(-c2cc3c(Nc4cccc(Oc5ccccc5)c4)nccc3n2C)cc1", "note": "[Compound 223, N,N-dimethyl-4-[1-methyl-4-(3-phenoxyanilino)pyrrolo[3,2-c]pyridin-2-yl]benzamide]", "Emax": "0 to 30"}
{"compound": "CS(=O)(=O)Nc1cccc(Nc2nccc3[nH]c(-c4ccccc4Cl)nc23)c1", "note": "[Compound 463, N-[3-[[2-(2-chlorophenyl)-1H-imidazo[4,5-c]pyridin-4-yl]amino]phenyl]methanesulfonamide]", "Emax": "30 to 50"}
{"compound": "Cc1cccc(CNc2nc3cnc(-c4ccoc4)cc3n2C)c1", "note": "[Compound 583, 6-(3-furyl)-1-methyl-N-(m-tolylmethyl)imidazo[4,5-c]pyridin-2-amine]", "Emax": "50 to 100"}
